Values of other authors in patent US12403129B2, “Isotope-enriched 3-amino-1-propanesulfonic acid derivatives for the treatment of cerebrovascular disease” (RISEN (SUZHOU) PHARMA TECH CO., LTD., priority 2021, dated 2025).

Columns and labels:
[1] = biological target: interaction between PSD95 and nNOS (Homo sapiens, UniProt P29475+P78352); details: by blocking the interaction between PSD95 and nNOS; cited from earlier work
[2] = produces three potential metabolites; major metabolite 2-carboxyethanesulfonic acid; cited from earlier work

Sequence of interaction between PSD95 and nNOS (P78352 whole entry): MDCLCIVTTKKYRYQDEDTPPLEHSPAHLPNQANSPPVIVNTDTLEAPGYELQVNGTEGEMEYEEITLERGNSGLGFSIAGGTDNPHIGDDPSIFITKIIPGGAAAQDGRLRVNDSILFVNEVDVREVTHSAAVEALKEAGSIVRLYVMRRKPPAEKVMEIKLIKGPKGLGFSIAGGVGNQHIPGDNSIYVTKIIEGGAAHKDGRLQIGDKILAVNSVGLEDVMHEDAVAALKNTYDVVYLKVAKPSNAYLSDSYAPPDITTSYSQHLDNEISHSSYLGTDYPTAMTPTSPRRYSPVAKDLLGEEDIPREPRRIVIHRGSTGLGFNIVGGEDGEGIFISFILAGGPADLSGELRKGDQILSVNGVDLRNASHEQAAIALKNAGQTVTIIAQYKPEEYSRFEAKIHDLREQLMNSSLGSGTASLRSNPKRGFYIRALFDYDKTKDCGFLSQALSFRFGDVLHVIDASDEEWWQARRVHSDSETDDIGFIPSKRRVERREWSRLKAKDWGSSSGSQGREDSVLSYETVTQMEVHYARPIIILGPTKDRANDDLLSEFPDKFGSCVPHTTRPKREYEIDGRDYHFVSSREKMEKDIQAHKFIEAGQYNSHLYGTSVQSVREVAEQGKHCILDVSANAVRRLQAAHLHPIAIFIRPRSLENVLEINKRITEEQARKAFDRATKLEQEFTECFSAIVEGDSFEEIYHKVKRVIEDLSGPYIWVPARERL
Sequence of interaction between PSD95 and nNOS (P29475 whole entry): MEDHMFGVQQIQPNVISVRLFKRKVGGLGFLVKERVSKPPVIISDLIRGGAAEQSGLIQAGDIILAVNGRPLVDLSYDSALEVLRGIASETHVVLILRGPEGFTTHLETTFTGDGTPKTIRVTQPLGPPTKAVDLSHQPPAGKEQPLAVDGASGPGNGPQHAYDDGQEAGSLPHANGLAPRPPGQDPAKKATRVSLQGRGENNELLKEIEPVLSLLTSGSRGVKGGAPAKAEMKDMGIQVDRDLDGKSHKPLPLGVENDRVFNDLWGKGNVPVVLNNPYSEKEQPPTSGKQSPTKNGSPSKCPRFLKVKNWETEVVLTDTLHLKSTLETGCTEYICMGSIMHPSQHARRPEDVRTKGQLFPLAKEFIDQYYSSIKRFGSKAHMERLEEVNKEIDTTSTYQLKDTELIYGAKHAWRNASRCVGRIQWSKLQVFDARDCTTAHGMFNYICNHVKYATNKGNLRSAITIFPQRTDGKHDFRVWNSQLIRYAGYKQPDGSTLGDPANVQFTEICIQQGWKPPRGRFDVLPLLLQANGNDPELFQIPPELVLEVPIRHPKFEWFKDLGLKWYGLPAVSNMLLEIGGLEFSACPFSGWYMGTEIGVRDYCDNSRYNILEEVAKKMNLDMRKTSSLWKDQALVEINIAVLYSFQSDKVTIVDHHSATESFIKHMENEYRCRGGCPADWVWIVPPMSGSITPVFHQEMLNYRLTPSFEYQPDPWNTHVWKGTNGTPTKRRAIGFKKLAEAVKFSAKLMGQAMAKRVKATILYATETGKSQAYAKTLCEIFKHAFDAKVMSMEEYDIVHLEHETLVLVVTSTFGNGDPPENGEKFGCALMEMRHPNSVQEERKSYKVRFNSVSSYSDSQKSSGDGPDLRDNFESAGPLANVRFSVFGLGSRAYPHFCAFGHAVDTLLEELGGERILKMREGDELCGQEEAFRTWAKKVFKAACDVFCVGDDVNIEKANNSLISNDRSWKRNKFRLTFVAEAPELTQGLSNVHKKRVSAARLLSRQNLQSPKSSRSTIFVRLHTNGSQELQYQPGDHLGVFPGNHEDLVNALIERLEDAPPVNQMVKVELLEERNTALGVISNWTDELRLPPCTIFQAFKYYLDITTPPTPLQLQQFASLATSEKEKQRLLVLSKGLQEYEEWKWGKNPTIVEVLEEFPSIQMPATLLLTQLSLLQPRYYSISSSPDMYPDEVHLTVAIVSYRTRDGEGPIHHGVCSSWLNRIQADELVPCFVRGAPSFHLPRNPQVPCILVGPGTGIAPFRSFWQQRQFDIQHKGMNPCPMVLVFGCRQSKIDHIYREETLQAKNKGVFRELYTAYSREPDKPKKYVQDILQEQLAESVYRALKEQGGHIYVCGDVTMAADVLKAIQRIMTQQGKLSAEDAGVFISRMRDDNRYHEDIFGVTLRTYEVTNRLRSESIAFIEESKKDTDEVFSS

Compound: NCCCS(=O)(=O)O [Tramiprosate, 3-amino-1-propanesulfonic acid]
- protection of neurons from ischemic stroke [1]: can protect neurons from ischemic stroke
- metabolism in vivo [2]: extensively metabolized
